Test results as given in patent US8039492B2, “Substituted cyclic compound, its preparation process and its medical use” (Shanghai Institute of Materia Medica, Chinese Academy of …, priority 2005, dated 2011).

Columns and labels:
GLP-1R [1] = biological target: T1, GLP-1R (Rattus norvegicus, UniProt P32301); assay: Testing the expression of reporter gene (luciferase under cAMP response element) in HEK 293/GLP-1R+Luc cells; format: cell-based; conditions: 6 h
T1 construct: expressed in transfected cells; host or cells: HEK 293 (human embryonic kidney), stably transfected; self-made by National New Drugs Screening Center
T1 sequence (P32301 22-463): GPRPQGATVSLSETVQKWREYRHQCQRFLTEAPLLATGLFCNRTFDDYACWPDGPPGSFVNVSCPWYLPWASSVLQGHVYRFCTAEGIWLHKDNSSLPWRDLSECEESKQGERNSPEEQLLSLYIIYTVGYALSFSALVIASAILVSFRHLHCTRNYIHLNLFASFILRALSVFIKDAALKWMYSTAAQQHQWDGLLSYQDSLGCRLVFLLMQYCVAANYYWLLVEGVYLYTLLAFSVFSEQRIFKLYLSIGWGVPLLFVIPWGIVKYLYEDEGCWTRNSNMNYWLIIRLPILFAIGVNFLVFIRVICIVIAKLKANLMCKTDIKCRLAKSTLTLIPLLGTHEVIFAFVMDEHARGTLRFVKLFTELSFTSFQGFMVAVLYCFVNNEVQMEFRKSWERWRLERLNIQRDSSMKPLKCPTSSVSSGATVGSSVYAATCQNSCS
Source text: 1. Testing the Expression of Reporter Gene
(§1) GLP-1R is a G-protein coupling receptor. When GLP-1R binds to an agonist, the Ga subunit of G protein is activated to stimulate adenylate cyclase, which leads to the increase in the concentration of intracellular cAMP. Since the promoter region of proinsulin gene has a cAMP response element, cAMP promotes, after binding to this response element, the transcription of the proinsulin gene, thereby stimulating the expression and secretion of insulin (Diabetes, 2000, Vol. 49: 1156-1164). The experimental method employs a human embryonal nephric cell strain (HEK 293) which is stably transfected with the expression vector of GLP-1R gene and the expression vector of luciferase reporter gene under the regulation of cAMP response element, to detect its response to the candidate compound (Cell Biology, 1992, Vol. 89: 8641-8645; Proc. Natl. Acad. Sci. U.S.A. 1987, Vol. 84: 3434-3438). When screening the candidate compounds, the compounds that may induce the expression of luciferase reporter gene are regarded as having the activity of activating GLP-1R.
(§2) Cell strain: HEK 293/GLP-1R+Luc cell strain, in which GLP-1R and luciferase are stably expressed (self-made by National New Drugs Screening Center);
HEK 293/GLP-1R+Luc cells were inoculated, in a quantity of 20,000/100 μl/well, into a 96-well culture plate, and cultured at 37° C. overnight with a DMEM culture medium containing 10% fetal bovine serum and 500 μg/ml G418. […] The culture was performed under the conditions of 37° C., 5% CO2 for 6 h. Thereafter, the activity of luciferase was detected according to the specification in the kit of Steady-Glo™ luciferase analytic system, and the reading was performed by using a Victor^2 plate-reading machine.

GLP-1R [2] = biological target: T1, GLP-1R; assay: Determination of the concentration of intracellular cAMP (CatchPoint Cyclic AMP kit) in HEK 293/GLP-1R+Luc cells; format: cell-based; conditions: 10 min
Source text: 2. Determination of the Concentration of Intracellular cAMP
Since the concentration of intracellular cAMP can only be indirectly evaluated according to the above method for detecting the activation of reporter gene, it is necessary to determine the influence of active compounds on the concentration of intracellular cAMP by using a cAMP-determining kit, i.e., a functional re-screening.
cAMP-determining kit (Molecular Devices Co., CatchPoint® Cyclic AMP kit);
HEK 293/GLP-1R+Luc cell strain, in which GLP-1R and luciferase are stably expressed (self-made by National New Drugs Screening Center);
HEK 293/GLP-1R+Luc cells were inoculated, in a quantity of 20,000/100 μl/well, into a 96-well culture plate, and cultured at 37° C. overnight. The candidate compounds S4P, S3-20-32, S3-11-14, S6-14 and S8 were respectively diluted to a certain concentration gradient, which were then added, in a quantity of […], into the above 96-well culture plate. The culture was performed under the conditions of 37° C., 5% CO2 for 10 min. Thereafter, the concentration of intracellular cAMP was determined according to the specification in CatchPoint® Cyclic AMP kit.
The lower the reading was, the higher the concentration of intracellular cAMP was.

GLP-1R [3] = biological target: T1, GLP-1R; assay: Antagonistic experiment with Exendin9-39 on S4P-induced reporter gene expression in HEK 293/GLP-1R+Luc cells; format: cell-based
Source text: 3. Antagonistic Experiment with Exendin9-39
In order to corroborate that the active compounds had receptor specificity with respect to their activating effects on reporter gene and intracellular cAMP, Exendin9-39 (Eur. J. Pharmacol, 1994, 269: 183-191; Metabolism 2004, 53:252-259.), a specific antagonist of GLP-1R, was used to validate whether it could antagonize the agonistic activity of the above representative compounds to GLP-1R.
as §2
HEK 293/GLP-1R+Luc cells were inoculated, in a quantity of 20,000/100 μl/well, into a 96-well culture plate, and cultured at 37° C. overnight with a DMEM culture medium containing 10% fetal bovine serum and 500 μg/ml G418. Exendin9-39 was diluted to a certain concentration gradient, which was then added, in a quantity of 1 μl/well, into the above 96-well culture plate. The culture was performed under the conditions of 37° C., 5% CO2 for 6 h. Thereafter, the activity of luciferase was detected according to the specification in the kit of Steady-Glo™ luciferase analytic system, and the reading was performed by using a Victor^2 plate-reading machine.

HEK 293/GLP-1R+Luc cells = assay: Cytotoxicity noted in the reporter gene test; format: cell-based, human; conditions: 6 h
Source text: as §1, with “When screening the candidate compounds, the compounds that may induce the expression of luciferase reporter gene are regarded as having the activity of activating GLP-1R.” left out
HEK 293/GLP-1R+Luc cells were inoculated, in a quantity of 20,000/100 μl/well, into a 96-well culture plate, and cultured at 37° C. overnight with a DMEM culture medium containing 10% fetal bovine serum and 500 μg/ml G418. […] Thereafter, the activity of luciferase was detected according to the specification in the kit of Steady-Glo™ luciferase analytic system, and the reading was performed by using a Victor^2 plate-reading machine.

[4] = final concentration 0.00001 mg/ml
[5] = final concentration 0.00003 mg/ml
[6] = final concentration 0.0001 mg/ml
[7] = final concentration 0.0003 mg/ml
[8] = final concentration 0.001 mg/ml
[9] = final concentration 0.003 mg/ml

Compound: COc1cc(C2C(NC(=O)c3ccc(NC(=O)C4CCCC4)cc3)(C(=O)O)C(c3ccc(OC(=O)c4cccs4)c(OC)c3)C2(NC(=O)c2ccc(NC(=O)C3CCCC3)cc2)C(=O)O)ccc1OC(=O)c1cccs1 (centres unmarked) [Compound S4P]
- expression of the reporter gene (% reaction, taking the reaction of 30 nM GLP-1 as 100%) (GLP-1R [1]; final concentration 0.000003 mg/ml): 5.157%
- expression of the reporter gene (% reaction, taking the reaction of 30 nM GLP-1 as 100%) (GLP-1R [1]; [4]): 5.151%
- expression of the reporter gene (% reaction, taking the reaction of 30 nM GLP-1 as 100%) (GLP-1R [1]; [5]): 5.276%
- expression of the reporter gene (% reaction, taking the reaction of 30 nM GLP-1 as 100%) (GLP-1R [1]; [6]): 5.697%
- expression of the reporter gene (% reaction, taking the reaction of 30 nM GLP-1 as 100%) (GLP-1R [1]; [7]): 10.19%
- expression of the reporter gene (% reaction, taking the reaction of 30 nM GLP-1 as 100%) (GLP-1R [1]; [8]): 22.23%
- expression of the reporter gene (% reaction, taking the reaction of 30 nM GLP-1 as 100%) (GLP-1R [1]; [9]): 35.55%
- expression of the reporter gene (% reaction, taking the reaction of 30 nM GLP-1 as 100%) (GLP-1R [1]; final concentration 0.01 mg/ml): 41.19%
- concentration of the intracellular cAMP (relative fluoresence intensity; lower reading = higher cAMP) (GLP-1R [2]; [4]): 3536.618 RFU
- concentration of the intracellular cAMP (relative fluoresence intensity; lower reading = higher cAMP) (GLP-1R [2]; [5]): 2924.461 RFU
- concentration of the intracellular cAMP (relative fluoresence intensity; lower reading = higher cAMP) (GLP-1R [2]; [6]): 2985.794 RFU
- concentration of the intracellular cAMP (relative fluoresence intensity; lower reading = higher cAMP) (GLP-1R [2]; [7]): 2708.597 RFU
- concentration of the intracellular cAMP (relative fluoresence intensity; lower reading = higher cAMP) (GLP-1R [2]; [8]): 1910.855 RFU
- concentration of the intracellular cAMP (relative fluoresence intensity; lower reading = higher cAMP) (GLP-1R [2]; [9]): 2072.988 RFU
- concentration of the intracellular cAMP (relative fluoresence intensity; lower reading = higher cAMP) (GLP-1R [2]; final concentration 0.01 mg/ml): 2310.616 RFU
- concentration of the intracellular cAMP (relative fluoresence intensity; lower reading = higher cAMP) (GLP-1R [2]; final concentration 0.03 mg/ml): 2480.017 RFU
- antagonistic effect of Exendin9-39 on S4P (% reaction, taking the reaction of 3 μM S4P as 100%) (GLP-1R [3]; Exendin9-39 final concentration 0.03 nM): 101.8115%
- antagonistic effect of Exendin9-39 on S4P (% reaction, taking the reaction of 3 μM S4P as 100%) (GLP-1R [3]; Exendin9-39 final concentration 0.1 nM): 96.64%
- antagonistic effect of Exendin9-39 on S4P (% reaction, taking the reaction of 3 μM S4P as 100%) (GLP-1R [3]; Exendin9-39 final concentration 0.3 nM): 83.84%
- antagonistic effect of Exendin9-39 on S4P (% reaction, taking the reaction of 3 μM S4P as 100%) (GLP-1R [3]; Exendin9-39 final concentration 1 nM): 90.78%
- antagonistic effect of Exendin9-39 on S4P (% reaction, taking the reaction of 3 μM S4P as 100%) (GLP-1R [3]; Exendin9-39 final concentration 3 nM): 72.84%
- antagonistic effect of Exendin9-39 on S4P (% reaction, taking the reaction of 3 μM S4P as 100%) (GLP-1R [3]; Exendin9-39 final concentration 10 nM): 52.48%
- antagonistic effect of Exendin9-39 on S4P (% reaction, taking the reaction of 3 μM S4P as 100%) (GLP-1R [3]; Exendin9-39 final concentration 30 nM): 32.33%
- antagonistic effect of Exendin9-39 on S4P (% reaction, taking the reaction of 3 μM S4P as 100%) (GLP-1R [3]; Exendin9-39 final concentration 100 nM): 18.77%
- antagonistic effect of Exendin9-39 on S4P (% reaction, taking the reaction of 3 μM S4P as 100%) (GLP-1R [3]; Exendin9-39 final concentration 300 nM): 15.97%
- antagonistic effect of Exendin9-39 on S4P (% reaction, taking the reaction of 3 μM S4P as 100%) (GLP-1R [3]; Exendin9-39 final concentration 1000 nM): 27.97%
- antagonistic effect of Exendin9-39 on S4P (% reaction, taking the reaction of 3 μM S4P as 100%) (GLP-1R [3]; Exendin9-39 final concentration 3000 nM): 14.57%
- antagonistic effect of Exendin9-39 on S4P (% reaction, taking the reaction of 3 μM S4P as 100%) (GLP-1R [3]; Exendin9-39 final concentration 10000 nM): 15.22%
- receptor specificity of the biological activity (GLP-1R [3]; antagonised by Exendin9-39): mediated by GLP-1R
- cytotoxicity in the reporter gene test (HEK 293/GLP-1R+Luc cells; final concentration 0.03 mg/ml): cytotoxic
- cytotoxicity in the reporter gene test (HEK 293/GLP-1R+Luc cells; final concentration 0.1 mg/ml): cytotoxic

Compound: Exendin9-39 [reference compound]
- effect on the expression of reporter gene induced by S4P (GLP-1R [3]; Table 3, FIG. 6): inhibit, in a dose-dependent manner
